Experiments:
[1] = system: LFY::luc transformed Arabidopsis thaliana ecotype Columbia; assay: Tissue selective ablation of meristem floral initiator cells; assay type: in vivo; details: 5 mM spray in 0.01% triton X-100, 2 times per day, 7-20 days
Source text: To test for induction of sterility and prevention of cross-pollination of recombinant plants, Arabiposis thaliana ecotype Columbia are transformed with a plasmid construct containing an LEAFY promoter (LFY) driven firefly luciferase (luc) gene by standard leaf disk techniques (Horsch, et al., 1988). The 2.3 kb BamHI fragment spanning the LFY promoter (Blazquez, et al., 1997) is inserted in front of the luc gene in plasmid pGL3 (available from Promega Corp., Madison, Wis.) using the BglII site. Transgenic plants are generated using the vacuum-filtration method of Berthold, et al. (Berthold, et al., 1993). Regenerated kanamycin-resistant T1 plants carrying LFY::luc are grown up in a greenhouse to allow seed to set. T2 seed of strongly expressing T1 lines are grown in sterile culture on MS medium containing kanamycin at 20° C. for 6 to 10 days in 16 hours light: 8 hours dark cycles and afterward in 12 hour light: 12 hour dark cycles. Plants are treated by spray application to the upper leaves and apical shoot sections, with 5 mM D-luciferin-bromoxynil in 0.01% aqueous triton X-100, 2 times per day, beginning on day 4, for a period of 7-20 days.

[2] = system: 50/50 co-culture of NIH/3T3 and CRE BAG 2 cells; assay: Selective ablation, ONPG turnover by remaining cells; assay type: cell-based; details: 15 μg/ml
Description: (§1) NIH/3T3, CRE BAG 2, or a 50/50 mixture of both cell lines (in co-culture) (Total cell density=6×10^4 cells each) were plated in […]. 12 tissue culture treated glass cover slips were added to each plate, and the cells were allowed to grow in an humidified CO2-incubator (37° C.) for 24 hours. Half the cover slips from each plate were then transferred to separate plates. Cells were treated with 15 μg/ml cycloheximide ? -D-galactopyranoside described in Example 1 (M0147) in media for 14 hours then given fresh media (DME with 10% FCS) for 10 hours. This treatment was repeated twice more, the cover slips were removed from both the M0147 treated and untreated 60 mm plates and placed in 12 well plates. To give an indication of the number of β-galactosidase expressing CREBAG2 cells remaining on the cover slips, the cover slips were incubated with the β-galactosidase substrate ONPG, whose turnover can be measured by the change in absorbance at 420 nm. The cells were rinsed with PBS, then 1 ml of 3.5 mM ONPG in HBSS was added to each well. After 4 hours incubation at 37° C., the solution was removed from each well and the absorbance was measured at 420 nm.

CRE BAG 2 cells = assay: as above; assay type: cell-based; details: 15 μg/ml, 14 hours, three treatments, ONPG turnover 4 hours
Description: as §1

NIH/3T3 cells [3] = assay: as above; assay type: cell-based; details: 15 μg/ml, 14 hours, three treatments, ONPG turnover 4 hours
Description: as §1

[4] = system: CRE BAG 2 cells (β-galactosidase expressing); assay: Doubling time in DME:F12 with a defined sugar, MTT assay; assay type: cell-based, Mouse; details: CRE BAG 2, named sugar as only sugar
Description: (§2) Mouse fibroblast cell line NIH/3T3 and its β-galactosidase expressing derivative CREBAG 2 available from ATCC, Manassas, Va., were grown in media containing either only glucose or only lactose to show the ability to select for β-galactosidase expressing cells by providing only lactose as a carbon source, which must be cleaved into glucose and galactose by β-galactosidase before it can be utilized by the cell.
(§3) 1:1 Dulbecco's Modified Eagles medium (DME): Ham F12 medium was prepared according to standard formula (Freshney) and with the omission of D-glucose, which was replaced by an equimolar quantity of D-lactose. Cell lines were plated in 2, 12 well plates for each cell type, at a density of 5×10^3 cells per well, in DME containing 10% Calf Serum (CS), and incubated for 4 hours at 37° C. to allow settling and attachment to the plate. Media was then removed and cells were washed once with phosphate buffered saline solution (PBS). […]
(§4) For the MTT assay, cells are incubated with the MTT reagent, which is turned over by live cells to a purple MTT formazan product. […] Absorbence of each sample is measured against a DMSO blank at 570 nm.

NIH/3T3 cells [5] = assay: as above; assay type: cell-based, Mouse; details: NIH/3T3, named sugar as only sugar
Description: as §2, §3, §4

[6] = system: X. campestris CL355 (ampicillin resistant, plasmid pGC9114); assay: Differential growth of amp-containing bacteria under PPT block; assay type: cell-based, Xanthomonas campestris; details: M9+0.2% glucose+PPT (20 μg/mL)+M0182 (63 μg/mL)
X. campestris XN1 = assay: Differential growth of non-transformed bacteria under PPT block; assay type: cell-based, Xanthomonas campestris; details: M9+0.2% glucose+PPT (20 μg/mL)+M0182 (63 μg/mL)

N#Cc1cc(Br)c(OCC2SC(c3nc4ccc(O)cc4s3)=N[C@H]2C(=O)O)c(Br)c1 (stereo partly drawn) [D-luciferin-bromoxynil, D-2-(6′-Hydroxybenzothiazol-2′-yl)-D2-5-(2,6-dibromo-4-cyanophenoxy)methylthiazoline-4-carboxylic acid]
floral initiation in apical shoot meristem [1]: no transition to floral initiation

CC1CC(C)C(=O)[C@H]([C@H](CC2CC(=O)NC(=O)C2)OC2OC(CO)C(O)C(O)C2O)C1 (stereo partly drawn) [Example M0147, 3-[2-(3,5-dimethyl-2-oxocyclohexyl)-2-O-(β-D-galactopyranosyl)ethyl]glutarimide]
β-galactosidase activity (number of CREBAG2 cells) in co-culture ([2]; to nearly that of NIH/3T3 cells alone): decrease of β-galactosidase activity | Growth (abs @ 420 nm) ([2]; Coculture, 14 hours, three treatments, ONPG turnover 4 hours): .133 | Growth (abs @ 420 nm) (CRE BAG 2 cells): .450 | Growth (abs @ 420 nm) (NIH/3T3 cells [3]): .100

OC[C@H]1O[C@@H](O[C@H]2[C@H](O)[C@@H](O)C(O)O[C@@H]2CO)[C@H](O)[C@@H](O)[C@H]1O (stereo partly drawn) [lactose, D-lactose]
Doubling Times (Days) of Cells Grown in DME:F12 with 10% dCS [4]: 1.13 days | Doubling Times (Days) of Cells Grown in DME:F12 with 10% dCS (NIH/3T3 cells [5]): 0.87 days

Phenylacetyl-cephalosporanic acid-glutamate [Example M0182]
final growth, Abs. (600 nm) [6]: 0.471 | final growth, Abs. (600 nm) (X. campestris XN1): 0.101
